{"source": "patent US20220008401A1", "about": "“COMPOSITIONS AND METHODS FOR TREATING PULMONARY DISEASE WITH MATRIX METALLOPROTEINASE INHIBITORS” (DARSHA LLC, priority 2019, published 2022)", "key": {"[1]": {"system": "neutrophils (PMN)", "experiment": "Myeloperoxidase staining of lung sections, LPS-injured mice, single inhaled dose", "assay_type": "in vivo", "settings": "LPS treated mice", "procedure": "Since substantial literature indicates neutrophils (PMN) are critical mediators of inflammatory damage in injured lung, we next assessed if inhaled Compound 1 attenuated PMN infiltration of LPS injured lungs. To achieve this, mice were injured with LPS and 24 h later received a single inhaled dose of Compound 1 and were sacrificed 1 hour after dosing. PMN infiltration was assessed by examining lung sections (qualitatively) and BALF (quantitatively) from Compound 1 treated and untreated mice. To assess the effects of Compound 1 on PMN in situ, paraffin embedded lung sections (prepared as described previously) were stained for myeloperoxidase, a PMN marker."}, "[2]": {"system": "caspase 3", "experiment": "Western blot for cleaved caspase 3 in lung homogenates of LPS-injured mice", "assay_type": "in vivo", "procedure": "It was also examined if Compound 1 would reduce the levels of apoptosis associated with injury by LPS. Because the time line of apoptosis takes hours, an additional set of mice were injured with LPS (1.5 mg/kg of 1 mg/ml solution in sterile PBS) followed by initiation of treatment with Compound 1 twenty four hours later. The mice received four doses of Compound 1 (one dose every six hours over a total duration of 24 hours in accordance with the treatment schedule described below with reference to FIG. 8B). The mice were sacrificed and their lungs were harvested and assessed for caspase 3 activity by western blot for cleaved caspase 3 and a caspase 3/7 activity assay obtained from ThermoFisher.\nFIG. 5A is a representative western blot of lung homogenates that were equalized for protein content (i.e., normalized to actin) and probed for whole and cleaved caspase 3. Each lane represents a lung homogenate sample (40 μg) from an individual mouse. Lane 510 depicts a lung homogenate sample from a control mouse that was not administered LPS or Compound 1. Lanes 520 and 530 depict lung homogenate samples from two mice that were administered LPS but were not treated with Compound 1. […]\nFIG. 5B is the relative densitometric quantification of western blots for cleaved caspase 3: whole caspase ratio. […]"}, "[3]": {"experiment": "Lung homogenate levels after nebulized Compound 1, Example 5 (mass spectroscopy)", "assay_type": "in vivo, C57/BL6 mice", "settings": "for Compound 1 levels in the lung: nebulized, dose groups pooled, lung homogenate, n=6", "procedure": "In this test, C57/BL6 mice were divided into three treatment groups, where they received nebulized Compound 1 at high dose (10 mg/kg), medium dose (5 mg/kg) and, low dose (2 mg/kg). Animals were sacrificed at 1, 3 and, 5 hours (n=3 mice per time point) followed by collection of lung homogenates. Homogenates were analyzed by mass spectroscopy to determine Compound 1 levels in the lung."}, "[4]": {"system": "integrin β1", "experiment": "Integrin β1 immunofluorescent staining of human neutrophils", "assay_type": "cell-based", "settings": "Compound 1 treatment for 1 hour, n=3, p<0.05", "description": "Regulation of cell motility by the integrin β1 subunit is well-documented in multiple cell types, with several lines of evidence indicating MMPs play a significant role in expression and cellular localization of integrin β1 during neutrophil migration (Dumin J A, et al. Pro-collagenase-1 (matrix metalloproteinase-1) binds the alpha(2)beta(1) integrin upon release from keratinocytes migrating on type I collagen. J Biol Chem 2001; 276(31); Ugarte-Berzal E, et al. A 17-residue sequence from the matrix metalloproteinase-9 (MMP-9) hemopexin domain binds alpha4beta1 integrin and inhibits MMP-9-induced functions in chronic lymphocytic leukemia B cells. J Biol Chem 2012; 287(33)). To determine if MMP inhibition by Compound 1 interfered with integrin β1 expression in human neutrophils, cells were seeded onto glass chamber slides followed by Compound 1 treatment for 1 hour. Cells were fixed and immunofluorescent staining was performed for integrin β1 and staining intensity was measured using NIH ImageJ and standardized to the number of cells per field."}, "[5]": {"system": "LPS injured mice", "experiment": "FITC-albumin exclusion assay (BALF:serum), LPS-injured mice, q6h x 4 doses", "assay_type": "in vivo", "settings": "LPS then inhaled Compound 1 every 6 hours for 4 doses; n=5 (LPS alone 1.04±0.13, PBS 0.44±0.11)", "procedure": "Based on the data, the effect of a 6 hour dosing interval (q6h) of Compound 1 on injured mice lung was explored. FIG. 8B schematizes the experimental LPS injury/Compound 1 treatment workflow utilized unless otherwise indicated. Briefly, mice were nasally instilled with LPS (1.5 mg/kg) followed by initiation of Compound 1 treatment 24 hours later (i.e., after a 24 hours rest period). Four doses of Compound 1 (12 mg/kg) were administered via nebulizer every 6 hours to maintain a constant presence of compound in the lung. PBS was administered as a control. Mice were sacrificed 6 hours following the fourth dose. It was next determined if LPS induced edema was a result of increased permeability of the pulmonary vascular barrier. This was achieved using a FITC-albumin exclusion assay. Approximately 1 hour prior to sacrifice, mice received a tail vein injection of 3 mg of FITC labeled albumin. BALF and serum were collected and the amount of labeled albumin in each sample (BALF FITC Albumin:serum FITC Albumin) was determined using a fluorescent plate reader."}, "[6]": {"system": "neutrophils", "experiment": "BrdU pulse-chase labeling of newly synthesized neutrophils in BALF of LPS-exposed mice", "assay_type": "in vivo", "settings": "LPS treated mice, n=3 (49.3±0.87% without treatment)", "procedure": "To examine the hypothesis that reduced neutrophil counts in response to Compound 1 treatment resulted from decreased cell migration from the pulmonary circulation, pulse-chase labeling of newly synthesized neutrophils in LPS exposed animals was performed. LPS or saline was nasally instilled into mice which were then allowed to recover for 24 hours. Following this, an intraperitoneal injection (IP injections) of bromodeoxyuridine (BrdU) was administered and animals were allowed to rest for 2.5 hours. A 2.5-hour rest period was selected since it was previously determined that BrdU labeled neutrophils take about 3 hours to reach and infiltrate the lungs. At 2.5 hours animals received inhaled Compound 1 or PBS and were sacrificed at either 15- or 45 minutes post-treatment. Cytospin slides were generated from BALF and immunofluorescently stained for BrdU and MPO to identify neutrophils. Confocal images were taken of cytospins stained for BrdU and MPO (myeloperoxidase). The number of BrdU (+) and BrdU (−) neutrophils was quantified."}}, "data": [{"substance": "butanamide, N-hydroxy-2-[[(4-hydroxyphenyl)sulfonyl](3-pyridinylmethyl)amino]-3-methyl, hydrochloride, (2R) [Compound 1]", "values": [{"measurement": "PMN infiltration into the lung parenchyma (myeloperoxidase staining)", "setting": "[1]", "result": "attenuates PMN infiltration into the lung parenchyma"}, {"measurement": "caspase 3 activation (cleaved caspase-3, western blot)", "setting": "[2]; LPS 1.5 mg/kg, four inhaled doses, one every six hours, starting 24 hours after LPS, lung homogenate", "result": "absent or reduced"}, {"measurement": "cleaved:whole caspase 3 ratio (densitometry)", "setting": "[2]; LPS-CGS group, four inhaled doses q6h starting 24 hours after LPS, n≥5 (LPS-PBS 2.57±1.15, PBS-PBS 0.25±0.15)", "result": "0.59±0.18", "unit": "AU"}, {"measurement": "Compound 1 levels in the lung", "setting": "[3]; 1 h post-inhalation", "result": "310.7 ± 85.38", "unit": "ng/g"}, {"measurement": "Compound 1 levels in the lung", "setting": "[3]; 3 h post-inhalation", "result": "49.03 ± 15.54", "unit": "ng/g"}, {"measurement": "Compound 1 levels in the lung", "setting": "[3]; 5 h post-inhalation", "result": "24.48 ± 9.96", "unit": "ng/g"}, {"measurement": "effect of dose size on Compound 1 concentration in lung", "setting": "[3]; high (10 mg/kg), medium (5 mg/kg), low (2 mg/kg) nebulized dose, 1, 3, 5 hours", "result": "no significant effect"}, {"measurement": "integrin β1 fluorescence intensity per cell", "setting": "[4]", "result": "2.88±1.23", "unit": "RFU"}, {"measurement": "FITC-albumin BALF:serum ratio", "setting": "[5]", "result": "0.49±0.13"}, {"measurement": "percentage of BrdU (+) neutrophils", "setting": "[6]; 15 minutes post inhaled treatment", "result": "16.7±3.6", "unit": "%"}, {"measurement": "percentage of BrdU (+) neutrophils", "setting": "[6]; 45 minutes post inhaled treatment", "result": "22.7±2.5", "unit": "%"}]}]}
